Test results as given in patent US9855239B2, “Methods for the treatment and prevention of age-related retinal dysfunction” (University of Washington, priority 2008, dated 2018).
Entries after “also recorded” stand apart in the source; their conditions may differ.

How the values were obtained:
[1] = A2E accumulation in eyes after long-term treatment; format: in vivo, mouse
Procedure: To evaluate the safety of long-term administration of 9-cis-R-Ac, A2E accumulation was measured (FIG. 6A), because retinals spontaneously condense to this compound (Mata, N. L., Weng, J. & Travis, G. H. Proceedings of the National Academy of Sciences of the United States of America 97, 7154-7159 (2000); Parish, C. A., Hashimoto, M., Nakanishi, K., Dillon, J. & Sparrow, J. Proceedings of the National Academy of Sciences of the United States of America 95, 14609-14613 (1998)).
All experimental procedures related to extraction, derivatization and separation of retinoids were carried out under dim red light provided by a Kodak No. 1 safelight filter (transmittance>560 nm) as described previously (Van Hooser, J. P., et al. Proceedings of the National Academy of Sciences of the United States of America 97, 8623-8628 (2000); Van Hooser, J. P., et al. J Biol Chem, 277, 19173-19182 (2002); Maeda, A., et al. J Biol Chem 280, 18822-18832 (2005); Van Hooser, J. P., Garwin, G. G. & Saari, J. C. Methods Enzymol 316, 565-575 (2000)). […] The combined extracts were dried under argon and retinoids were separated by normal phase HPLC (Beckman, Ultrasphere-Si, 5 μm, 4.6×250 mm) with 10% ethyl acetate and 90% hexane at a flow rate of 1.4 ml/min and detected at 325 nm by an HPI 100 HPLC with a diode array detector and HP Chemstation A.03.03 software. […]

C57BL/6 female mice [2] = experiment: Single-flash ERG after single dose treatment, bleach and dark adaptation; format: in vivo, mouse; settings: single dose ~80 mg/kg gavage, 10-month-old mice, 20 min bleach at 500 cd·m^−2, 16 hr dark adaptation; vs control (a-waves P<0.01)
Procedure: Forty eight hr dark-adapted, 10-month-old mice were gavaged with a single dose (˜80 mg/kg body weight) of 9-cis-R-Ac or control vehicle and exposed to strong illumination for 20 min (500 cd·m^−2 that bleached ˜90% rhodopsin). Next, mice were dark-adapted for 16 hr after which various analyses were performed (FIG. 1A). […] To investigate whether 9-cis-retinal was utilized to form isorhodopsin and to assess how much unliganded opsin was present in the mouse eyes, rhodopsin, isorhodopsin and opsin were purified by immunoaffinity chromatography from treated and control groups of mice. […] After bleaching, 9-cis-retinal is bound to opsin even in the presence of a functional retinoid cycle that produces 11-cis-retinal to regenerate rhodopsin. Eyes from non-bleached or bleached and dark-adapted untreated mice contained a small amount of free opsin.
9-cis-R-Ac was prepared as previously described (Batten, M. L., et al. PLoS medicine 2, e333 (2005); Batten, M. L., et al. J Biol Chem 279, 10422-10432 (2004)). A dose of ˜80 mg/kg body weight of 9-cis-R-Ac in 150 μl vegetable oil was administered via gavage to each treated animal. […]
(§1) ERGs of anesthetized mice were recorded as previously reported.

[3] = mouse, in vivo
Procedure: (§3) Animals were evaluated weekly for activity and changes in coat and skin appearance.
(§4) For the long-term study (FIGS. 1B and 1C, Table 1), mice were obtained at 3 months of age and raised until 4 months of age before the experiments were initiated. Mice then were gavaged with 9-cis-R-Ac or vehicle solution once a month for different durations. Six groups of mice were studied (FIG. 1B). The first 3 groups (C0 C1 and C2, total n=35 for each group) were treated as controls and tested at 4, 10 and 14 months of age. The other 3 groups (N1, N2 and N3, n=35) were gavaged with 9-cis-R-Ac. Group N1 was gavaged for 6 months and tested at 10 months of age. Group N2 was gavaged with 9-cis-R-Ac for 10 months and tested at 14 months of age. Group N3, was gavaged with vehicle until 10 months of age and then received 9-cis-R-Ac monthly until testing at 14 months of age.

[4] = Husbandry: activity, coat and skin appearance, body weight, tolerability
Procedure: as §3, §4

C57BL/6 female mice [5] = experiment: Single flash ERG analyses after long-term treatment; format: in vivo, mouse; settings: for a- and b-wave amplitudes, scotopic and photopic single flash ERG: 80 mg/kg
Description: To evaluate the effects of rod- and cone-mediated light responses after long-term 9-cis-R-Ac treatments, mice were examined by non-invasive ERG methods. The first set of analyses was done at 4 and 10 months of age. Under scotopic conditions, the amplitudes of a-waves decreased with age, especially at high flash intensities (C1 versus C0 group, FIG. 4A, left top panel), whereas the changes in b-waves were less evident (FIG. 4A, right top panel).
The second set of analyses was done at 14 months of age.
Six groups of mice were studied (FIG. 1B).
(§2) Two weeks after the last gavage with either, 9-cis-R-Ac, all-trans-R-Ac or vehicle, groups of 48 hr dark-adapted mice were analyzed for recovery of dark adaptation after light exposure, purified rhodopsin/opsin and retinoids in the eye and retinal morphology (FIG. 1C; Methods). Mice were exposed to light of intensity 500 cd·m^−2 that bleached ˜90% of rhodopsin, anesthetized and monitored by ERG for one hr to evaluate recovery of dark adaptation. Rhodopsin was purified and rhodopsin/opsin ratios was determined. Retinoid analyses were performed on dissected eyes removed at 0, 10, 30, and 60 min after exposure to the same amount of light. Mice used to evaluate retinal morphology were not exposed to photobleaching prior to analysis.
as §1

[6] = Retinoid kinetics in the eyes during dark adaptation, long-term treatment; format: in vivo, mouse; settings: 10 months of age, N1 vs C1, 60 min after the bleach (p<0.01)
Procedure: Recovery of the ERG response (dark adaptation) following bleach was measured by monitoring the amplitude of a-waves after retinal exposure to intense constant illumination (500 cd·m^−2, ˜90% bleached rhodopsin) for 3 min. […] Retinoid kinetics in the eyes of each group were quantitatively evaluated during 60 min of dark adaptation after 3 min of bleaching at four subsequent time points of dark adaptation (0, 10, 30, and 60 min). […] Neither 9-cis-retinal nor 9-cis-retinyl esters were found in eyes from untreated groups (data not shown).
as §2, with “analysis. […]” for “analysis.”

CC(=O)OC/C=C(C)/C=C/C=C(C)\C=C\C1=C(C)CCCC1(C)C [9-cis-R-Ac, 9-cis-retinyl acetate]
amounts of A2E in eyes ([1]; all experimental groups (C1, C2, N1, N2, N3), FIG. 6B): did not differ significantly among all groups with the exception of N3, where they were slightly lower
A2E and iso-A2E levels in eyes ([1]; long-term treatment, treated vs control at 10 and 14 months of age): did not accumulate
functional a- and b-wave amplitudes, single-flash ERG (C57BL/6 female mice [2]): slightly increased
tolerability of long-term treatment [3]: well tolerated
activity and changes in coat and skin appearance ([4]; evaluated weekly during the experimental period): No changes
body weights ([4]; pre-treatment, 10 months and 14 months, control (C1-2) vs treated (N1-3)): no significant differences
a- and b-wave amplitudes, scotopic and photopic single flash ERG (C57BL/6 female mice [5]; 10 months of age, monthly gavage ~80 mg/kg for 6 months (N1 vs C1), high flash strengths, except a-waves under photopic conditions): slight improvement; also recorded: significantly improved; also recorded: increased significantly
sensitivities and maximal a-wave amplitudes estimated from a-wave maximal responses (C57BL/6 female mice [5]; 14 months of age, dark-adapted mice, treated vs control): not to be significantly different
a- and b-wave amplitudes, scotopic and photopic single flash ERG (C57BL/6 female mice [5]; 14 months of age, monthly gavage ~80 mg/kg (9-cis-R-Ac: N2 and N3), vs control C2): No significant differences; also recorded: largely disappeared
regeneration level of 11-cis-retinal in eyes [6]: significantly higher
